Assay results: the supplement of paper PMC10307832

Tests used:
Assay in all cases: relative viability (nuclei count vs DMSO), 5 days (fraction); higher = more cells survive
Vemurafenib + Foretinib = compound: CCCS(=O)(=O)Nc1ccc(F)c(C(=O)c2c[nH]c3ncc(-c4ccc(Cl)cc4)cc23)c1F [Vemurafenib] + COc1cc2c(Oc3ccc(NC(=O)C4(C(=O)Nc5ccc(F)cc5)CC4)cc3F)ccnc2cc1OCCCN1CCOCC1 [Foretinib] (partner 0.25 µM)
In short: (§1)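 Lung cancer cell lines were seeded in 1536-well plates and dosed by pin tool the next day, with either a single drug or a fixed anchor-drug dose combined with five library-drug doses (not always all listed) spaced in √10 steps. Five days later, one step fixed the cells and stained their nuclei (final 0.05% Triton X-100, 1% formaldehyde, 1 ug/ml Hoechst), and nuclei were counted on 4× images. Relative viability is the nuclei count in treated wells divided by the count in vehicle wells, and each value is the median of duplicate plates.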

Vemurafenib + Pictilisib = compound: CCCS(=O)(=O)Nc1ccc(F)c(C(=O)c2c[nH]c3ncc(-c4ccc(Cl)cc4)cc23)c1F [Vemurafenib] + CS(=O)(=O)N1CCN(Cc2cc3nc(-c4cccc5[nH]ncc45)nc(N4CCOCC4)c3s2)CC1 [Pictilisib] (partner 1 µM)
In short: as §1

OSI-027 + Crizotinib = compound: COc1cccc2cc(-c3nc([C@H]4CC[C@H](C(=O)O)CC4)n4ncnc(N)c34)[nH]c12 [OSI-027] + C[C@@H](Oc1cc(-c2cnn(C3CCNCC3)c2)cnc1N)c1c(Cl)ccc(F)c1Cl [Crizotinib] (partner 1 µM)
In short: as §1

Vemurafenib + AZD7762 = compound: CCCS(=O)(=O)Nc1ccc(F)c(C(=O)c2c[nH]c3ncc(-c4ccc(Cl)cc4)cc23)c1F [Vemurafenib] + NC(=O)Nc1cc(-c2cccc(F)c2)sc1C(=O)N[C@H]1CCCNC1 [AZD7762] (partner 0.2 µM)
In short: as §1

| Cell Line | relative viability (Vemurafenib + Foretinib; first compound 0.03162 µM) | relative viability (Vemurafenib + Foretinib; first compound 0.1 µM) | relative viability (Vemurafenib + Foretinib; first compound 0.3162 µM) | relative viability (Vemurafenib + Foretinib; first compound 1 µM) | relative viability (Vemurafenib + Pictilisib; first compound 0.03162 µM) | relative viability (Vemurafenib + Pictilisib; first compound 0.1 µM) | relative viability (Vemurafenib + Pictilisib; first compound 0.3162 µM) | relative viability (Vemurafenib + Pictilisib; first compound 1 µM) | relative viability (OSI-027 + Crizotinib; first compound 0.01 µM) | relative viability (OSI-027 + Crizotinib; first compound 0.03162 µM) | relative viability (OSI-027 + Crizotinib; first compound 0.1 µM) | relative viability (OSI-027 + Crizotinib; first compound 0.3162 µM) | relative viability (OSI-027 + Crizotinib; first compound 1 µM) | relative viability (Vemurafenib + AZD7762; first compound 0.03162 µM) | relative viability (Vemurafenib + AZD7762; first compound 1 µM) | relative viability (Vemurafenib + AZD7762; first compound 0.1 µM) | relative viability (Vemurafenib + AZD7762; first compound 0.3162 µM) |
| --- | --- | --- | --- | --- | --- | --- | --- | --- | --- | --- | --- | --- | --- | --- | --- | --- | --- |
| NCI-H1703 | 0.358 | 0.307 | 0.329 | 0.374 | 0.245 | 0.21 | 0.233 | 0.252 | 0.753 | 0.591 | 0.595 | 0.672 | 0.374 | 0.12 | 0.101 | – | – |
| NCI-H1734 | 0.81 | 0.82 | 0.779 | 0.763 | 0.452 | 0.545 | 0.432 | 0.367 | 0.618 | 0.509 | 0.731 | 0.599 | 0.394 | 0.568 | 0.559 | 0.533 | 0.371 |
| NCI-H1755 | 0.882 | 0.889 | 0.891 | 0.832 | 0.342 | 0.347 | 0.314 | 0.381 | 0.915 | 0.771 | 0.872 | 0.748 | 0.421 | 0.483 | 0.408 | 0.459 | 0.328 |
| NCI-H1915 | 1.09 | 1.05 | 1.03 | 1 | 0.751 | 0.903 | 0.908 | 0.85 | 0.928 | 0.829 | 0.931 | 0.896 | 0.584 | 0.644 | 0.612 | 0.728 | 0.587 |
| NCI-H1944 | 0.868 | 0.614 | 0.879 | 0.837 | 0.318 | 0.326 | 0.331 | 0.307 | 1.18 | 1.18 | 1.1 | 0.918 | 0.596 | 0.515 | 0.57 | – | 0.426 |
| NCI-H1975 | 0.957 | 0.969 | 0.792 | 0.963 | 0.279 | 0.278 | 0.232 | 0.332 | 1.1 | 0.88 | 0.99 | 0.97 | 0.828 | 0.689 | 0.654 | 0.697 | 0.396 |
| NCI-H1993 | 0.793 | – | 0.98 | 0.823 | 0.767 | – | 0.801 | 0.831 | 0.783 | 0.77 | 0.678 | 0.565 | 0.56 | 0.657 | 0.966 | – | 0.804 |
| NCI-H2085 | 0.856 | 0.92 | 1.26 | 0.902 | 0.421 | 0.458 | 0.664 | 0.416 | 0.807 | 0.852 | 0.825 | 0.812 | 0.586 | 0.893 | 0.997 | 0.804 | 0.928 |
| NCI-H2087 | 1.02 | 0.979 | – | 1.12 | 0.728 | 0.816 | – | 0.802 | 0.991 | 0.971 | 0.753 | 0.866 | 0.53 | 1.12 | 1.19 | 1.31 | 1.09 |
| NCI-H2126 | 1.13 | 0.696 | 1.31 | 1.09 | 0.494 | 0.4 | 0.572 | 0.471 | 1.04 | 0.986 | 0.996 | 0.915 | 0.664 | 0.971 | 1.1 | 0.997 | 0.99 |
| NCI-H2170 | 0.907 | 0.858 | 1 | 1.02 | 0.305 | 0.157 | 0.254 | 0.293 | 1.31 | 1.07 | 0.986 | 1.1 | 0.552 | 0.774 | 0.766 | – | 0.685 |
| NCI-H2347 | 0.662 | 0.91 | 0.843 | 0.811 | 0.328 | 0.659 | 0.754 | 0.667 | 0.668 | 0.609 | 0.673 | 0.388 | 0.405 | 0.744 | 0.884 | 0.744 | 0.664 |
| NCI-H2405 | 1 | 1.03 | – | 1.03 | 0.347 | 0.467 | – | 0.48 | 0.856 | 0.729 | 0.814 | 0.631 | 0.338 | 0.709 | 0.721 | 0.696 | – |
| NCI-H3122 | 0.992 | 0.957 | 1.02 | 1.07 | 0.596 | 0.596 | 0.798 | 0.69 | 0.261 | 0.26 | 0.266 | 0.215 | 0.163 | 0.988 | 1.09 | 0.895 | 0.922 |
| PC-3 [JPC-3] | 0.911 | – | 1.05 | 1.13 | 0.649 | – | 0.857 | 0.82 | 0.999 | 0.943 | 1.02 | 0.984 | 0.551 | – | 0.94 | – | 0.785 |
| PC-14 | 0.882 | – | 0.876 | 0.942 | 0.584 | – | 0.805 | 0.696 | 1 | 0.898 | 0.95 | 0.934 | 0.581 | 0.272 | 0.356 | – | – |
| RERF-LC-KJ | 0.858 | 0.816 | 0.875 | 0.876 | 0.838 | 0.464 | 0.707 | 0.597 | 0.884 | 0.938 | 0.861 | 0.805 | 0.484 | 0.874 | 1.08 | 1.01 | 0.663 |
